# Patent US5288709A, “Erythromycin derivatives” (priority 1991, dated 1994)
# Like-named read-outs stand apart in the source and are kept apart here.
# Legend:
# [1] = system: Staphylococcus aureus CMX 686B; experiment: In-vitro antimicrobial activity primary screen (agar dilution MIC); format: cell-based; details: CMX686B, BHI agar, 20-24 h, read-out: MIC
# Summary of the method: (§1)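 Agar dilution in Brain Heart Infusion agar with twelve successive compound dilutions; plates inoculated with 1:100 diluted cultures by replicator and incubated 20-24 h at 35-37 °C. MIC is the lowest concentration giving no growth, slight haze or sparse isolated colonies versus compound-free control; erythromycin A plate run as reference.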
# [2] = system: Staphylococcus aureus CMX 503A; experiment: as above; format: cell-based; details: BHI agar, 20-24 h
# Summary of the method: as §1
# [3] = system: Staphylococcus aureus CMX 553; experiment: as above; format: cell-based; details: BHI agar, 20-24 h
# Summary of the method: as §1
# [4] = system: Streptococcus pyogenes C-203; experiment: In-vivo acute mouse protection assay; design: species or system Streptococcus pyogenes; female Swiss albino mice; details: dosed 1 and 5 h post-infection, observed 7 days
# Protocol: (§2) An acute mouse protection test was conducted on ten mice with each of three concentrations of selected compounds of the invention. Each concentration was a four-fold dilution of the previous concentration. The initial concentration will vary with the microorganism with which the mouse is challenged.
# (§3) The acute mouse protection test was conducted on female, Swiss albino mice, 18-20 grams in weight. […] To check the potency of the inoculum, a titration of the indicated test organism was carried out in control animals. The titration determines the LD50 for a particular microorganism. The treatment groups of animals were dosed orally, by gavage, or subcutaneously with the test compounds at 1 and 5 hours post-infection and observed for 7 days. The ED50 were calculated using the mortality data collected.
# [5] = system: Enterococcus faecium ATCC 8043; experiment: In-vitro antimicrobial activity primary screen (agar dilution MIC); format: cell-based; details: Enterococcus faecium, ATCC8043, 24 h
# Summary of the method: (§4)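 Steps: prepare 12 BHI agar plates with serial aqueous dilutions; inoculate with 1:100 dilutions (1:10 for Streptococcus and other slow growers); incubate 35-37° C, 20-24 h; score MIC as lowest concentration with no growth, slight haze or isolated colonies.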
# [6] = system: Streptococcus pyrogenes 2548 INDUC; experiment: as above; format: cell-based; details: BHI agar, 20-24 h
# Summary of the method: as §4
# [7] = system: Pseudomonas aeruginosa K799/61; experiment: as above; format: cell-based
# Summary of the method: as §4
# Acinetobacter SP CMX 669 = experiment: as above; format: cell-based; details: Acinetobacter SP CMX 669, BHI agar, 20-24 h
# Summary of the method: as §4
# Escherichia coli DC-2 = experiment: as above; format: cell-based; details: Escherichia coli DC-2, BHI agar, 20-24 h
# Summary of the method: as §4
# Escherichia coli H560 = experiment: as above; format: cell-based; details: Escherichia coli, H560, 24 h, Escherichia coli H560; BHI agar, 20-24 h
# Summary of the method: as §4
# [8] = system: Micrococcus luteus ATCC 4698; experiment: as above; format: cell-based; details: BHI agar, 20-24 h
# Summary of the method: as §4
# [9] = system: Pseudomonas aeruginosa A5007; experiment: as above; format: cell-based; details: Pseudomonas aeruginosa, A5007, 24 h
# Summary of the method: as §4
# [10] = system: Staphylococcus aureus 45 RAR2; experiment: as above; format: cell-based; details: Staphylococcus aureus, 45RAR2, 24 h, BHI agar, 20-24 h
# Summary of the method: as §4
# [11] = system: Staphylococcus epidermidis 3519; experiment: as above; format: cell-based; details: BHI agar, 20-24 h
# Summary of the method: as §4
# [12] = system: Enterobacter aerogenes ATCC 13048; experiment: as above; format: cell-based; details: Klebsiella aerogenes, ATCC13048, 24 h
# Summary of the method: as §4
# Escherichia coli JUHL = experiment: as above; format: cell-based; details: Escherichia coli, 24 h, Escherichia coli JUHL; BHI agar, 20-24 h
# Summary of the method: as §4
# [13] = system: Streptococcus pyrogenes EES61; experiment: as above; format: cell-based; details: BHI agar, 20-24 h
# Summary of the method: as §4
# [14] = system: Streptococcus agalactiae CMX 508; experiment: as above; format: cell-based; details: Streptococcus agalactiae, CMX508, 24 h, BHI agar, 20-24 h
# Summary of the method: as §4
# [15] = system: Providencia stuartii CMX 640; experiment: as above; format: cell-based; details: Providencia stuartii, CMX640, 24 h
# Summary of the method: as §4
# Escherichia coli SS = experiment: as above; format: cell-based; details: BHI agar, 20-24 h
# Summary of the method: as §4
# [16] = system: Staphylococcus aureus ATCC 6538P; experiment: as above; format: cell-based; details: BHI agar, 20-24 h
# Summary of the method: as §4
# [17] = system: Streptococcus bovis A5169; experiment: as above; format: cell-based; details: Streptococcus equinus, A5169, 24 h, BHI agar, 20-24 h
# Summary of the method: as §4
# [18] = system: Pseudomonas aeruginosa K799/WT; experiment: as above; format: cell-based; details: Pseudomonas aeruginosa, K799/WT, 24 h
# Summary of the method: as §4
# [19] = Pharmacokinetic evaluation in dogs after a 10 mg/kg dose; details: dog, plasma; for half-life: t1/2 (biological half life); for bioavailability: % ABS (percent absorbance), from AUC (absolute bioavailability); for Cmax: Cmax (maximum concentration in blood); for Tmax: Tmax (time to achieve maximum concentration in blood)
# Protocol: Selected compounds of the present invention were formulated as solutions in dilute lactobionic acid at a concentration of 10 or 20 mg/ml. Groups of two or three dogs were given a 10 mg macrolide/kg intravenous bolus or oral dose (by gavage). Plasma samples, obtained at selected time points from 15 minutes to 32 hours after dosing, were assayed using reverse phase HPLC with electrochemical detection (parent drug) and microbiological assay (total microbiological activity). Plasma concentration time curves were subjected to multi exponential curve fitting to determine terminal elimination half life values. Area under the curve (AUC) values, calculated by the trapezoidal method, were used to calculate absolute bioavailability.
# [20] = system: Haemophilus influenzae (ATCC 43095); experiment: In-vivo acute mouse protection assay; design: species or system Haemophilus influenzae; female Swiss albino mice; details: dosed 1 and 5 h post-infection, observed 7 days
# Protocol: as §2, §3
# [21] = system: Klebsiella pneumoniae ATCC 8045; experiment: In-vitro antimicrobial activity primary screen (agar dilution MIC); format: cell-based; details: Klebsiella pneumoniae, ATCC8045, 24 h
# Summary of the method: as §4
# [22] = Staphylococcus aureus, CMX503A, 24 h, read-out: MIC
# [23] = Staphylococcus aureus, CMX553, 24 h, read-out: MIC
# [24] = Micrococcus luteus, ATCC4698, 24 h
# [25] = Staphylococcus aureus, ATCC6538P, 24 h
# [26] = po, oral 10 mg/kg, HPLC (parent drug)
# [27] = po, oral 10 mg/kg, microbiological assay
smiles,measurement,setting,value
"CC[C@H]1OC(=O)[C@H](C)[C@@H](O[C@H]2C[C@@](C)(OC)[C@@H](O)[C@H](C)O2)[C@H](C)[C@@H](O[C@@H]2O[C@H](C)C[C@H](N(C)C)[C@H]2O)[C@](C)(O)C[C@@H](C)[C@@H]2O[C@@]1(C)[C@@H](O)[C@H]2C [Example 4, (9S,11S)-9-Deoxo-12-deoxy-9,12-epoxyerythromycin A]",MIC,[1],0.2 µg/mL
same,MIC,[2]; [22],0.2 µg/mL
same,MIC,[3]; [23],0.2 µg/mL
same,ED50,"[4]; C203, 168 h, oral",20 mg/kg
same,ED50,"[4]; C203, sc, 168 h, subcutaneous",3.3 mg/kg
same,MIC,[5],0.1 µg/mL
same,MIC,"[6]; Streptococcus, 2548INDUC, 24 h",3.1 µg/mL
same,MIC,"[7]; Pseudomonas aeruginosa K799/61, BHI agar, 20-24 h, read-out: MIC",0.39 µg/mL
same,MIC,"Acinetobacter SP CMX 669; Acinetobacter, SPCMX669, 24 h",3.1 µg/mL
same,MIC,"Escherichia coli DC-2; Escherichia coli, DC2, 24 h",50 µg/mL
same,MIC,Escherichia coli H560,25 µg/mL
same,MIC,[8]; [24],0.1 µg/mL
same,MIC,[9],> 100 µg/mL
same,MIC,[10],0.39 µg/mL
same,MIC,[11]; read-out: MIC,0.2 µg/mL
same,MIC,"[12]; Enterobacter aerogenes ATCC 13048, BHI agar, 20-24 h",50 µg/mL
same,MIC,Escherichia coli JUHL,25 µg/mL
same,MIC,[13]; read-out: MIC,0.01 µg/mL
same,MIC,[14],0.05 µg/mL
same,MIC,[15],> 100 µg/mL
same,MIC,"Escherichia coli SS; Escherichia coli, 24 h",0.2 µg/mL
same,MIC,[16]; [25],0.2 µg/mL
same,MIC,[17],0.02 µg/mL
same,MIC,"[18]; Pseudomonas aeruginosa K799/WT, BHI agar, 20-24 h",100 µg/mL
same,half-life,"[19]; iv, IV 10 mg/kg, HPLC (parent drug)",2.9 h
same,half-life,"[19]; iv, IV 10 mg/kg, microbiological assay",2.9 h
same,bioavailability,[19]; [26],69%
same,bioavailability,[19]; [27],75%
same,Cmax,[19]; [26],3900 ng/mL
same,Cmax,[19]; [27],4300 ng/mL
same,Tmax,[19]; [26],0.25 h
same,Tmax,[19]; [27],0.4 h
same,half-life,[19]; [26],2.9 h
same,half-life,[19]; [27],2.7 h
same,ED50,"[20]; ATCC43095, 168 h, oral, read-out: ED50",238 mg/kg
same,ED50,"[20]; ATCC43095, sc, 168 h, subcutaneous, read-out: ED50",11.3 mg/kg
"CC[C@H]1OC(=O)[C@H](C)[C@@H](O[C@H]2C[C@@](C)(OC)[C@@H](O)[C@H](C)O2)[C@H](C)[C@@H](O[C@@H]2O[C@H](C)C[C@H](N(C)C)[C@H]2O)[C@](C)(O)C[C@@H](C)C(=O)[C@H](C)[C@@H](O)[C@]1(C)O [Std, Erythromycin A, reference compound]",MIC,[1],0.2 µg/mL
same,MIC,[2],0.1 microgram/mL
same,MIC,[2]; [22],0.2 µg/mL
same,MIC,[3],0.1 microgram/mL
same,MIC,[3]; [23],0.2 µg/mL
same,MIC,[5],0.05 µg/mL
same,MIC,[6],1.56 microgram/mL
same,MIC,"[6]; Streptococcus, 2548INDUC, 24 h",3.1 µg/mL
same,MIC,"[7]; Pseudomonas aeruginosa K799/61, BHI agar, 20-24 h",1.56 microgram/mL
same,MIC,"[7]; Pseudomonas aeruginosa, K799/61, 24 h",0.78 µg/mL
same,MIC,Acinetobacter SP CMX 669,3.1 microgram/mL
same,MIC,"Acinetobacter SP CMX 669; Acinetobacter, SPCMX669, 24 h",6.2 µg/mL
same,MIC,Escherichia coli DC-2,25 microgram/mL
same,MIC,Escherichia coli H560,25 µg/mL
same,MIC,[8],0.2 microgram/mL
same,MIC,[8]; [24],0.1 µg/mL
same,MIC,[9],> 100 µg/mL
same,MIC,[21],100 µg/mL
same,MIC,[11],0.1 microgram/mL
same,MIC,"[11]; Staphylococcus epidermidis, 3519, 24 h",0.2 µg/mL
same,MIC,[12],100 µg/mL
same,MIC,Escherichia coli JUHL,25 µg/mL
same,MIC,"[13]; Streptococcus, EES61, 24 h",0.02 µg/mL
same,MIC,[15],> 100 µg/mL
same,MIC,Escherichia coli SS,0.39 microgram/mL
same,MIC,"Escherichia coli SS; Escherichia coli, 24 h",0.2 µg/mL
same,MIC,[16],0.1 microgram/mL
same,MIC,[16]; [25],0.2 µg/mL
same,MIC,[17],0.02 µg/mL
same,MIC,[18],100 µg/mL
same,bioavailability,[19]; [27],72%
same,Cmax,[19]; [27],2500 ng/mL
same,Tmax,[19]; [27],0.3 h
same,ED50,"[20]; ATCC43095, sc, 168 h, subcutaneous",29.7 mg/kg
